Measurements taken from US20170239212A1, “[…] AND USE THEREOF AS ANTIVIRAL AGENTS” (priority 2014, published 2017).
pEC50: −log10 of the molar value. Like-named read-outs stand apart in the source and are kept apart here.

How the values were obtained:
[1] = ester bond, 2,4,6-trichlorobenzoyl chloride / Et3N / DMAP, toluene, 40.0 °C, 14.0 h
[2] = system: HIV long terminal repeat (LTR) promoter; assay: HOS LTR stimulation assay (luciferase reporter); format: cell-based; details: HOS cells
Procedure: In the assay, non T cell derived human osteosarcoma (HOS) cells are transfected with a luciferase reporter under control of an HIV long terminal repeat (LTR) promoter. Compounds that stimulate the HIV LTR promoter will produce luciferase in a dose dependent manner.
(§1) Specifically, EC50 and CC50 values were determined in parallel using 10 concentrations of compound from 3 fold serial dilutions starting a 5 uM as the highest concentration. Cells and media were added to compounds with a final concentration of DMSO of 1% and incubated at 37° C., 5% CO2 for 24, 48 and 72 hours. EC50 was measured by induced luciferase activity detected by the use of the Steady-Glo® Luciferase reagent (PROMEGA) with an EnVision (Perkin-Elmer) plate reader. CC50 was determined by the dose dependent knock down of cellular ATP detected by the use of CellTiter-Glo® Luminescent Cell Viability reagent (PROMEGA) with an EnVision (Perkin-Elmer) plate reader.
The error bars represent the average and the standard error of the mean of at least three independent experiments.

[3] = in vitro; format: cell-based; details: human; Jurkat cells, knock down of cellular ATP
Procedure: as §1, with “The compounds were also tested in the T cell derived Jurkat cell line transfected with a luciferase reporter under control of an HIV long terminal repeat (LTR) promoter. Specifically,” for “Specifically,”

[4] = system: HIV long terminal repeat (LTR) promoter; assay: cells; format: cell-based; details: Jurkat cells; for pEC50: Human immunodeficiency virus 1, LTR-luciferase, incubated 24, 48 and 72 hours (time of the listed values not stated); for selectivity ratio: human; for selectivity ratio / Selectivity (CC50:EC50): ratio of the CC50 to the EC50
Procedure: as §1, with “The compounds were also tested in the T cell derived Jurkat cell line transfected with a luciferase reporter under control of an HIV long terminal repeat (LTR) promoter. Specifically,” for “Specifically,”

[5] = system: human osteosarcoma (HOS) cells; assay: HOS cell viability (CellTiter-Glo, cellular ATP); format: cell-based; parameters: unit not given here; details: knock down of cellular ATP
Procedure: as §1

[6] = system: U937 cells; assay: Inhibition of U937 cell proliferation; format: cell-based, human
Procedure: (§2) U937 cells (Sundstrom, C.; Nilsson, K.: Establishment and characterization of a human histiocytic lymphoma cell line (U-937). Int. J. Cancer 1976, 17: 565-577), purchased from ATCC (Manassas, Va.) and cultured in RPMI-1640 medium supplemented with 10% FBS (ATCC, Manassas, Va.), were plated in 35 mm dishes at a density of 2×10^5 living cells/ml and treated with different concentrations of the drugs or DMSO. After 72 hours, the number of cells in the supernatant (non-attached cells) and the number of attached cells (after trypsinization) were counted using a Beckman particle counter (Beckman Coulter Inc., Fullerton, Calif.). The number of attached cells is expressed as percent of total cells (FIGS. 8-10).
(§3) U937 cells were treated with PMA (0.1-100 nM), bryostatin 1 (1-1000 nM), the indicated compound (1-1000 nM), 10 nM PMA with different concentrations of bryostatin 1 (1-1000 nM) or 10 nM PMA with different concentrations of indicated compound (1-1000 nM). The number of attached and non-attached cells was counted and the number of total cells was expressed as % of control. The bars and error bars represent the average and the standard error of the mean of five independent experiments (FIGS. 8-10).
(§4) U937 cells (Sundstrom and Nilsson, 1976), purchased from ATCC (Manassas, Va.) and cultured in RPMI-1640 medium supplemented with 10% FBS (ATCC, Manassas, Va.), were plated in 35 mm dishes at a density of 1×10^5 living cells/ml and treated with different concentrations of the drugs or DMSO. After 72 hours, the number of cells in the supernatant (non-attached cells) and the number of attached cells (after trypsinization) were counted using a particle counter. The number of attached cells is expressed as percent of total cells.
(§5) U937 cells were treated with PMA (0.01-100 nM), bryostatin 1 (0.1-1000 nM), analogue 12 (MERLE 28) (0.1-1000 nM), 10 nM PMA with different concentrations of bryostatin 1 (0.1-1000 nM) or 10 nM PMA with different concentrations of analogue 12 (0.1-1000 nM). The numbers of attached and non-attached cells were counted and the number of total cells was expressed as % of control. The bars and error bars represent the average and the standard error of the mean of at least three independent experiments.
as §4
as §3, with “at least three” for “five”, “experiments.” for “experiments (FIGS. 8-10).”

[7] = system: U937 cells; assay: Attachment of U937 cells; format: cell-based, human; details: 72 hours
Procedure: as §2
(§6) U937 cells were treated with PMA (0.1-100 nM), bryostatin 1 (1-1000 nM), the indicated compound (1-1000 nM), 10 nM PMA with different concentrations of bryostatin 1 (1-1000 nM) or 10 nM PMA with different concentrations of indicated compound (1-1000 nM) for 72 hours. The number of attached cells and total cells were counted and the attached cells were graphed as percent of total cells. The bars and error bars represent the average and the standard error of the mean of five independent experiment (FIGS. 8-10).
as §4
as §5, with “number” for “numbers”, “attached cells” for “attached”, “total” for “non-attached”, “attached cells were graphed as percent” for “number”, “cells.” for “cells was expressed as % of control.”
as §4
as §6, with “at least three” for “five”, “experiments.” for “experiment (FIGS. 8-10).”

[8] = 10 nM PMA with different concentrations of compound

Question: With `C=C1C[C@@H]2C[C@@H]3CC(=C)C[C@H](/C=C/C(C)(C)[C@]4(OC)O[C@@H](C/C(=C\C(=O)OC)[C@@H]4OC(=O)/C=C/C=C/CCC)C[C@H]([C@@H](C)OCOCc4ccccc4)OC(=O)C[C@H](OCc4ccc(OC)cc4)C[C@H](C1)O2)O3` as the molecule, how does the ring closure, yield of all isomers ([1]; from C=C1C[C@H](C[C@@H]2CC(=C)C[C@H](/C=C/C(C)(C)[C@]3(OC)O[C@H](C[C@@H](O)[C@@H](C)OCOCc4ccccc4)C/C(=C\C(=O)OC)[C@@H]3OC(=O)/C=C/C=C/CCC)O2)O[C@H](C[C@H](CC(=O)O)OCc2ccc(OC)cc2)C1, 0.74 mM, 2 steps) read?
Answer: Its ring closure, yield of all isomers is 52%.

Question: With `C=C1C[C@@H]2C[C@@H]3CC(=C)C[C@H](/C=C/C(C)(C)[C@]4(OC)O[C@@H](C/C(=C\C(=O)OC)[C@@H]4OC(C)=O)C[C@H]([C@@H](C)OCOCc4ccccc4)OC(=O)C[C@H](OCc4ccc(OC)cc4)C[C@H](C1)O2)O3` as the molecule, how does the ring closure, yield of all isomers ([1]; from C=C1C[C@H](C[C@@H]2CC(=C)C[C@H](/C=C/C(C)(C)[C@]3(OC)O[C@H](C[C@@H](O)[C@@H](C)OCOCc4ccccc4)C/C(=C\C(=O)OC)[C@@H]3OC(C)=O)O2)O[C@H](C[C@H](CC(=O)O)OCc2ccc(OC)cc2)C1, 0.97 mM, 2 steps) read?
Answer: The ring closure, yield of all isomers was 58%.

Question: Which ring closure, yield of all isomers ([1]; from C=C1C[C@H](C[C@@H]2CC(=C)C[C@H](/C=C/C(C)(C)[C@]3(OC)O[C@H](C[C@@H](O)[C@@H](C)OCOCc4ccccc4)CCC3=O)O2)O[C@H](C[C@H](CC(=O)O)OCc2ccc(OC)cc2)C1, 0.85 mM, 2 steps) does the source give for `C=C1C[C@@H]2C[C@@H]3CC(=C)C[C@H](/C=C/C(C)(C)[C@]4(OC)O[C@@H](CCC4=O)C[C@H]([C@@H](C)OCOCc4ccccc4)OC(=O)C[C@H](OCc4ccc(OC)cc4)C[C@H](C1)O2)O3` here?
Answer: Its ring closure, yield of all isomers is 87%.

Question: For `C=C1C[C@H]2C[C@H]3C[C@@H](O[Si](CC)(CC)CC)C[C@@H](C[C@@H](OCc4ccc(OC)cc4)CC(=O)O[C@@H]([C@@H](C)OCOCc4ccccc4)C[C@@H]4C/C(=C\C(=O)OC)[C@H](OC(=O)CCCCCCC)[C@@](OC)(O4)C(C)(C)/C=C/[C@@H](C1)O2)O3`, which ring closure, yield of all isomers ([1]; from C=C1C[C@@H](C[C@H]2C[C@@H](O[Si](CC)(CC)CC)C[C@@H](C[C@H](CC(=O)O)OCc3ccc(OC)cc3)O2)O[C@@H](/C=C/C(C)(C)[C@]2(OC)O[C@H](C[C@@H](O)[C@@H](C)OCOCc3ccccc3)C/C(=C\C(=O)OC)[C@@H]2OC(=O)CCCCCCC)C1, 0.79 mM) is on record?
Answer: The ring closure, yield of all isomers was 91%.

Question: Which ring closure, yield of all isomers ([1]; from C=C1C[C@@H](C[C@]2(OC)O[C@H](C[C@H](CC(=O)O)O[Si](CC)(CC)CC)C[C@H](OC(C)=O)C2(C)C)O[C@@H](/C=C/C(C)(C)[C@]2(OC)O[C@H](C[C@@H](O)[C@@H](C)OCOCc3ccccc3)C/C(=C\C(=O)OC)[C@@H]2OC(=O)/C=C/C=C/CCC)C1, 0.62 mM, 2 steps) does the source give for `C=C1C[C@H]2C[C@]3(OC)O[C@H](C[C@@H](O[Si](CC)(CC)CC)CC(=O)O[C@@H]([C@@H](C)OCOCc4ccccc4)C[C@@H]4C/C(=C\C(=O)OC)[C@H](OC(=O)/C=C/C=C/CCC)[C@@](OC)(O4)C(C)(C)/C=C/[C@@H](C1)O2)C[C@H](OC(C)=O)C3(C)C` here?
Answer: Its ring closure, yield of all isomers is 62%.

Question: For `C=C1C[C@@H]2C[C@@H]3CC(=C)C[C@H](/C=C/C(C)(C)[C@]4(O)O[C@@H](C/C(=C\C(=O)OC)[C@@H]4OC(=O)/C=C/C=C/CCC)C[C@H]([C@@H](C)O)OC(=O)C[C@H](O)C[C@H](C1)O2)O3` [MERLE 23], which “Max signal (% of control)” value ([2]; LTR-luciferase signal) is on record?
Answer: The value was 166 % of control.

Question: What about the “Conc (uM) at Max” value ([2]; concentration at maximal LTR-luciferase signal) of the same molecule?
Answer: The value was 0.07 µM.

Question: And the pEC50 ([2]; Human immunodeficiency virus 1, LTR-luciferase, incubated 24, 48 and 72 hours (time of the listed values not stated), read-out: EC50)?
Answer: The pEC50 was 8.70.

Question: What about the CC50 [3] of the same molecule?
Answer: The CC50 was 5 nM.

Question: And the pEC50 [4]?
Answer: The pEC50 was 9.70.

Question: What about the selectivity ratio [4] of the same molecule?
Answer: The selectivity ratio was 25.

Question: And the CCEC50 [5]?
Answer: Its CCEC50 is 39.57.

Question: Which “Block of PMA inhibition of U937 cell proliferation” value [6, 8] does the source give for `C=C1C[C@H]2CC3(O)O[C@H](C[C@@H](O)CC(=O)O[C@@H]([C@@H](C)O)C[C@@H]4C/C(=C\C(=O)OC)[C@H](OC(=O)/C=C/C=C/CCC)[C@@](O)(O4)C(C)(C)/C=C/[C@@H](C1)O2)C[C@H](OC(C)=O)C3(C)C` [MERLE 28] here?
Answer: The value was “Both of these aspects of bryostatin 1 induced biological response are captured”.

Question: And the “Inhibition of U937 cell proliferation (total cells as % of control)” value ([6]; compound alone, 72 hours)?
Answer: The value was “very similar to those for bryostatin 1”.

Question: What about the “Block of PMA-induced attachment of U937 cells” value [7, 8] of the same molecule?
Answer: The value was “blocks the effect of the phorbol ester when the two agents are administered together”.

Question: What about the “Attachment of U937 cells (attached cells as percent of total)” value ([7]; compound alone) of the same molecule?
Answer: Its value is “approaches that of bryostatin 1 itself”.

Question: Which results are given for `C=C1CC2C[C@@H](O)CC(=O)O[C@@H]([C@@H](C)O)C[C@@H]3C/C(=C\C(=O)OC)[C@H](OC(C)=O)[C@@](O)(O3)C(C)(C)/C=C/[C@H]3CC(=C)C[C@@H](C[C@@H](C1)O2)O3` [MERLE 35]?
Answer: CC50 [3]: 50 nM; pEC50 [4]: 8.00; Selectivity (CC50:EC50) [4]: greater than one; selectivity ratio [4]: 5

Question: For `C=C1CC2C[C@@H](O)CC(=O)O[C@@H]([C@@H](C)O)C[C@@H]3C/C(=C\C(=O)OC)[C@H](OC(=O)CCCCCN(C)C)[C@@](O)(O3)C(C)(C)/C=C/[C@H]3CC(=C)C[C@@H](C[C@@H](C1)O2)O3` [MERLE 37], which CC50 [3] is on record?
Answer: The CC50 was 550 nM.

Question: And the pEC50 [4]?
Answer: Its pEC50 is 7.10.

Question: What about the “Selectivity (CC50:EC50)” value [4] of the same molecule?
Answer: The value was “greater than one”.

Question: And the selectivity ratio [4]?
Answer: The selectivity ratio was 6.9.
